Assay results: US20080293771A1, “AZACYCLYLBENZAMIDE DERIVATIVES AS HISTAMINE-3 ANTAGONISTS” (Wyeth, priority 2007, published 2008)
pKi: −log10 of the molar value.

Each compound was assayed against T1, Human Histamine H3 Receptor (Homo sapiens, UniProt Q9Y5N1) (assay: Methyl histamine binding in Human Histamine H3 Receptor Cell Line). Conditions: read-out: hH3 Binding Ki.
T1 construct: expressed in transfected cells; host or cells: HEK293T (stably transfected; membrane preparation)
Method: Evaluation of Methyl histamine binding in Human Histamine H3 Receptor Cell Line
The affinity of test compounds for the histamine 3 (H3) receptor is evaluated in the following manner. […] Cells are scraped from the plate, transferred to centrifuge tubes, washed one time in PBS by centrifugation in a Sorvall RT7 Plus centrifuge (2000 rpm 10 minutes, 4° C.). The resulting pellets are stored at −80° C. until ready for use. Cells are re-suspended in buffer (50 mM Tris pH=7.5) and placed in a Dounce homogenizer, douncing ten times to homogenize cells. The homogenate is spun down by centrifugation (Sorvall RT7 Plus, 1800 rpm 10 minutes, 4° C.). The supernatant is placed in a Corex tube and spun down by centrifugation (Sorvall RC 5c Plus, 17,000 rpm 20 minutes, 4° C.). The pellet is resuspended in buffer (50 mM Tris, pH 7.5). Protein concentration (ug/ul) is determined using the Micro-BCA Protein Determination. The binding assay is set up in a 96 well microtiter plate in a total volume of 250 uL. Non-specific binding is determined in the presence of 10 uM clobenpropit. The final radioligand concentration is 1 nM. The test compound is serially diluted using the Beckman Biomek2000 to a final approximate range of 100 uM to 100 pM. Membranes are suspended in buffer, homogenized in 2 bursts of ten seconds using a Vitris mechanical homogenizer set at power setting 5. Ten μg of membranes are added to each well. Following a one hour incubation at 30° C., the reaction is terminated by the addition of ice cold buffer and rapid filtration with a Packard Filtermate Harvester through a GF/B filter pre-soaked with 1% PEI for one hour. The plate is dried for one hour at 37° C. and 60 μL Microscint Scintillant is added to each well. The CPM per well is measured on a Packard Top Count NXT. Ki values are determined in nM. […] CPM values are expressed as % specific binding and plotted vs compound concentration. A curve is fitted using a four-parameter logistic fit and the IC50 value is determined. The Ki is calculated from this using the Cheng-Prusoff equation: […]=IC50/1+(L/Kd) where L=concentration of free radioligand used in the assay, and Kd is the dissociation constant of the radioligand for the receptor. L is determined for each experiment by counting an aliquot of the diluted radioligand (corresponding to that added to each well) and the Kd has previously been determined under identical conditions for this cell line/radioligand.

T1 sequence (Q9Y5N1 whole entry): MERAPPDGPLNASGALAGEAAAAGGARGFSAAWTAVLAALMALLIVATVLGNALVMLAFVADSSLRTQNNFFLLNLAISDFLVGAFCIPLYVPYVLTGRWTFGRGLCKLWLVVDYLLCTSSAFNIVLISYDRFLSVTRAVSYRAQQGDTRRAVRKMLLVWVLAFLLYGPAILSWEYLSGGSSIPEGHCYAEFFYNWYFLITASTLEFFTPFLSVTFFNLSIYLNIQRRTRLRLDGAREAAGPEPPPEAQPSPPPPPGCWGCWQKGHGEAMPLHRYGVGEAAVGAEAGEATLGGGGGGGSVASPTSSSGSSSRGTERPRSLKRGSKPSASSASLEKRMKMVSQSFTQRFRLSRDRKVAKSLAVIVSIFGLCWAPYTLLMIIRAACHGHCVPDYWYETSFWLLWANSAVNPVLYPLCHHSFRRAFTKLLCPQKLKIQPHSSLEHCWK

SMILES	pKi
CC(C)N1CCC(N(C)C(=O)c2ccc(Cn3ncc4ccccc43)cc2)CC1 [Example 79, 4-(1H-indazol-1-ylmethyl)-N-(1-isopropylpiperidin-4-yl)-N-methylbenzamide]	7.00 to 7.30
CN(C(=O)c1ccc(Cn2ncc3ccccc32)cc1)C1CCN(C2CCC2)CC1 [Example 80, N-(1-cyclobutylpiperidin-4-yl)-4-(1H-indazol-1-ylmethyl)-N-methylbenzamide]	< 7.00
CN(C(=O)c1ccc(Cn2ncc3ccccc32)cc1)C1CCN(C2CCCC2)CC1 [Example 81, N-(1-cyclopentylpiperidin-4-yl)-4-(1H-indazol-1-ylmethyl)-N-methylbenzamide]	< 7.00
CC(C)N1CCC(N(C)C(=O)c2ccc(-n3cccn3)cc2)CC1 [Example 85, N-(1-isopropylpiperidin-4-yl)-N-methyl-4-(1H-pyrazol-1-yl)benzamide]	< 7.00
CN(C(=O)c1ccc(-n2cccn2)cc1)C1CCN(C2CCC2)CC1 [Example 86, N-(1-cyclobutylpiperidin-4-yl)-N-methyl-4-(1H-pyrazol-1-yl)benzamide]	< 7.00
CN(C(=O)c1ccc(-n2cccn2)cc1)C1CCN(C2CCCC2)CC1 [Example 87, N-(1-cyclopentylpiperidin-4-yl)-N-methyl-4-(1H-pyrazol-1-yl)benzamide]	< 7.00
CC(C)N1CCC(N(C)C(=O)c2ccc(Cn3cccn3)cc2)CC1 [Example 91, N-methyl-N-[1-(1-methylethyl)piperidin-4-yl]-4-(1H-pyrazol-1-ylmethyl)benzamide]	< 7.00
CN(C(=O)c1ccc(Cn2cccn2)cc1)C1CCN(C2CCC2)CC1 [Example 92, N-(1-cyclobutylpiperidin-4-yl)-N-methyl-4-(1H-pyrazol-1-ylmethyl)benzamide]	< 7.00
CN(C(=O)c1ccc(Cn2cccn2)cc1)C1CCN(C2CCCC2)CC1 [Example 93, N-(1-cyclopentylpiperidin-4-yl)-N-methyl-4-(1H-pyrazol-1-ylmethyl)benzamide]	< 7.00
Cc1nc2ccccc2n1-c1ccc(C(=O)N(C)[C@@H]2CCN(C(C)C)C2)cc1F [Example 103, 3-fluoro-N-methyl-4-(2-methyl-1H-benzimidazol-1-yl)-N-[(3R)-1-(1-methylethyl)pyrrolidin-3-yl]benzamide]	7.30 to 8.00
Cc1nc2ccccc2n1-c1ccc(C(=O)N(C)[C@@H]2CCN(C3CCC3)C2)cc1F [Example 104, N-[(3R)-1-cyclobutylpyrrolidin-3-yl]-3-fluoro-N-methyl-4-(2-methyl-1H-benzimidazol-1-yl)benzamide]	7.30 to 8.00
Cc1nc2ccccc2n1-c1ccc(C(=O)N(C)[C@@H]2CCN(C(C)C)C2)c(Cl)c1 [Example 105, 2-chloro-N-methyl-4-(2-methyl-1H-benzimidazol-1-yl)-N-[(3R)-1-(1-methylethyl)pyrrolidin-3-yl]benzamide]	7.30 to 8.00
Cc1nc2ccccc2n1-c1ccc(C(=O)N(C)[C@@H]2CCN(C3CCC3)C2)c(Cl)c1 [Example 106, 2-chloro-N-[(3R)-1-cyclobutylpyrrolidin-3-yl]-N-methyl-4-(2-methyl-1H-benzimidazol-1-yl)benzamide]	7.30 to 8.00
Cc1nc2ccccc2n1-c1ccc(C(=O)N(C)C2CCN(C(C)C)CC2)cc1F [Example 119, 3-fluoro-N-methyl-4-(2-methyl-1H-benzimidazol-1-yl)-N-[1-(1-methylethyl)piperidin-4-yl]benzamide]	≥ 8.00
Cc1nc2ccccc2n1-c1ccc(C(=O)N(C)C2CCN(C3CCCC3)CC2)cc1F [Example 120, N-(1-cyclopentylpiperidin-4-yl)-3-fluoro-N-methyl-4-(2-methyl-1H-benzimidazol-1-yl)benzamide]	7.30 to 8.00
Cc1nc2ccccc2n1-c1ccc(C(=O)N(C)C2CCN(C(C)C)CC2)c(Cl)c1 [Example 121, 2-chloro-N-methyl-4-(2-methyl-1H-benzimidazol-1-yl)-N-[1-(1-methylethyl)piperidin-4-yl]benzamide]	≥ 8.00
